Assay results as given in ChEMBL document CHEMBL1155494, “New stilbene dimers against amyloid fibril formation” (Bioorg Med Chem Lett, 2010).

Experiments:
[1] = Inhibition of amyloid beta 25-35 fibril formation at 10 uM by using UV-visible measurements and electron microscopy analysis
[2] = Inhibition of amyloid beta 25-35 fibril formation by using UV-visible measurements and electron microscopy analysis

| SMILES | inhibition [1] [%] | EC50 [2] [µM] |
| --- | --- | --- |
| COc1cc(/C=C/c2cc(O)c3c(c2)O[C@H](c2ccc(O)c(OC)c2)[C@H]3c2cc(O)cc(O)c2)ccc1O | 40 |  |
| OC[C@@H]1O[C@H](Oc2ccc(/C=C/c3cc(O)c4c(c3)O[C@H](c3ccc(O[C@H]5O[C@@H](CO)[C@H](O)[C@@H](O)[C@@H]5O)cc3)[C@H]4c3cc(O)cc(O)c3)cc2)[C@@H](O)[C@H](O)[C@H]1O [12,GNEMENOSIDE A] | 46 | 10 |
| Oc1cc(O)cc(/C=C/c2ccc(O)c(O)c2)c1 | 25 |  |
| Oc1ccc(/C=C/c2cc(O)cc3c2[C@H](c2cc(O)cc(O)c2)[C@@H](c2ccc(O)cc2)O3)cc1 | 27 |  |
| Oc1ccc(/C=C/c2cc(O)cc(O)c2)cc1 [RESVERATROL] | 63 | 6 |
| Oc1cc(O)cc(-c2cc3ccc(O)cc3o2)c1 | 9 |  |
| COc1cc(/C=C/c2ccc(O)cc2)cc(OC)c1 | 35 |  |
| OC[C@H]1O[C@@H](Oc2cc(/C=C/c3ccc(O)cc3)c3c(c2)O[C@H](c2ccc(O)cc2)[C@H]3c2cc(O)cc(O)c2)[C@H](O)[C@@H](O)[C@@H]1O | 93 | 0.2 |
| OC[C@H]1O[C@@H](Oc2ccc(/C=C/c3cc(O)cc(O)c3)cc2)[C@H](O)[C@@H](O)[C@@H]1O | 11 |  |
| Oc1cc(O)cc(/C=C/c2ccc(O)cc2O)c1 | 32 |  |
| Oc1ccc(/C=C/c2cc(O)cc3c2[C@H](c2cc(O)cc(O)c2)[C@@H](c2ccc(O)c(O)c2)O3)cc1 [SCIRPUSIN A] | 80 | 0.7 |
| COc1cc(/C=C/C(=O)CC(=O)/C=C/c2ccc(O)c(OC)c2)ccc1O [CURCUMIN] | 45 | 10 |
| COc1cc(/C=C/c2cc(O)cc(O)c2)ccc1O[C@@H]1O[C@H](CO)[C@@H](O)[C@H](O)[C@H]1O | 28 |  |
| Oc1ccc([C@H]2Oc3cc(O)c([C@@H]4[C@@H](c5cc6c(cc5O)O[C@H](c5ccc(O)cc5)[C@H]6c5cc(O)cc(O)c5)[C@H](c5ccc(O)cc5)O[C@@H]4c4ccc(O)cc4)cc3[C@@H]2c2cc(O)cc(O)c2)cc1 | 17 |  |
| OC[C@H]1O[C@@H](Oc2cc(O)cc(/C=C/c3ccc(O)cc3)c2)[C@H](O)[C@@H](O)[C@@H]1O [PICEID] | 62 | 6 |
| Oc1ccc(C2Oc3ccc(/C=C/c4cc(O)cc5c4[C@H](c4cc(O)cc(O)c4)[C@@H](c4ccc(O)cc4)O5)cc3[C@@H]2c2cc(O)cc3c2[C@H](c2cc(O)cc(O)c2)C(c2ccc(O)cc2)O3)cc1 (some centres not stated) | 32 |  |
